Data reported in ChEMBL document CHEMBL2074497, “Involvement of rat organic anion transporter 3 (rOAT3) in cephaloridine-induced nephrotoxicity: in comparison with rOAT1” (Life Sci, 2002).

Experiments:
Format in all cases: functional, cell-based
[1] = target: T1, Organic anion transporter 3 (Rattus norvegicus, UniProt Q9R1U7); experiment: TP_TRANSPORTER: inhibition of Estrone sulfate uptake in OAT3-expressing S2 cells
T1 sequence (Q9R1U7 whole entry): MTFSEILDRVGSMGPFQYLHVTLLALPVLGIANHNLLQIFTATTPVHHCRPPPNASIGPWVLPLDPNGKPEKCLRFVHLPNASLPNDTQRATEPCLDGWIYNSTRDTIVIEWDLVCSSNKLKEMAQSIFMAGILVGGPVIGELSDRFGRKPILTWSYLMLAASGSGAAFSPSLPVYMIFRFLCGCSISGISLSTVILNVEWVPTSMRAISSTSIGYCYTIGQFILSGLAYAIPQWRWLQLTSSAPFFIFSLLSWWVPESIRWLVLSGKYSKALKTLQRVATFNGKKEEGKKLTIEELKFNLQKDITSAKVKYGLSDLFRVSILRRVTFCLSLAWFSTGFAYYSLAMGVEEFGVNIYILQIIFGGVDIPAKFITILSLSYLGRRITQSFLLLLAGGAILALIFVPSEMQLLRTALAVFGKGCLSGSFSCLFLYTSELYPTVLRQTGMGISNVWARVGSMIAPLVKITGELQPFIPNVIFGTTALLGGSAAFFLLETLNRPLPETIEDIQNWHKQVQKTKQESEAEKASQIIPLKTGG

[2] = target: T2, Solute carrier family 22 member 6 (Rattus norvegicus, UniProt O35956); experiment: TP_TRANSPORTER: inhibition of PAH uptake in OAT1-expressing S2 cells
T2 sequence (O35956 whole entry): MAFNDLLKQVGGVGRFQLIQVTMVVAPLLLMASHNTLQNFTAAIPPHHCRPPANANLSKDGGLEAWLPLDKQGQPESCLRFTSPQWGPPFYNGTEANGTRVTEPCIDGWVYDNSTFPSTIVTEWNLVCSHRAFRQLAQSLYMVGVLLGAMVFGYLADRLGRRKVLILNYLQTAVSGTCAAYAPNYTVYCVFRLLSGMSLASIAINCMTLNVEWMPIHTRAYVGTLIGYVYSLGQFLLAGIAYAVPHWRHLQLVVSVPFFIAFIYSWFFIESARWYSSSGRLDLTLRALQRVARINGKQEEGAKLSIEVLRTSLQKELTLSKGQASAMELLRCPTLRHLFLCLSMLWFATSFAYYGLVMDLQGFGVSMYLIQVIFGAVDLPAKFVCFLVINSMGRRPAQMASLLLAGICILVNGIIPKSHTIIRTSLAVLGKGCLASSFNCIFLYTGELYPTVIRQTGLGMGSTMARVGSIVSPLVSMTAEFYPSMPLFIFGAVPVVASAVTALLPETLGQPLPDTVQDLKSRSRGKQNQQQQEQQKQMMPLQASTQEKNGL

[3] = target: T1, Organic anion transporter 3; experiment: TP_TRANSPORTER: uptake in OAT3-expressing S2 cells; details: mouse

| IC50 [1] [µM] | Ki [1] [µM] | Structure (SMILES) | other results |
| --- | --- | --- | --- |
| 1780 | – | CC1=C(C(=O)O)N2C(=O)[C@@H](NC(=O)[C@H](N)c3ccc(O)cc3)[C@H]2SC1 [CEFADROXIL] | – |
| 90 | – | Cn1nnnc1SCC1=C(C(=O)O)N2C(=O)[C@@H](NC(=O)[C@H](O)c3ccccc3)[C@H]2SC1 [CEFAMANDOLE] | – |
| – | 780 | Cc1nnc(SCC2=C(C(=O)O)N3C(=O)[C@@H](NC(=O)Cn4cnnn4)[C@H]3SC2)s1 [CEFAZOLIN] | – |
| – | 670 | CCN1CCN(C(=O)N[C@@H](C(=O)N[C@@H]2C(=O)N3C(C(=O)O)=C(CSc4nnnn4C)CS[C@H]23)c2ccc(O)cc2)C(=O)C1=O [CEFOPERAZONE] | – |
| 800 | – | CO/N=C(\C(=O)N[C@@H]1C(=O)N2C(C(=O)O)=C(COC(C)=O)CS[C@H]12)c1csc(N)n1 [CEFOTAXIME] | – |
| > 2000 | – | CO/N=C(\C(=O)N[C@@H]1C(=O)N2C(C(=O)O)=C(CSc3nc(=O)c(=O)[nH]n3C)CS[C@H]12)c1csc(N)n1 [CEFTRIAXONE] | – |
| 630 | – | CC1=C(C(=O)O)N2C(=O)[C@@H](NC(=O)[C@H](N)c3ccccc3)[C@H]2SC1 [CEPHALEXIN ANHYDROUS] | IC50 [2]: > 2000 µM |
| – | 1140 | O=C(Cc1cccs1)N[C@@H]1C(=O)N2C(C(=O)[O-])=C(C[n+]3ccccc3)CS[C@H]12 [CEPHALORIDINE] | Activity [3]: substrate [+] |
| – | 48 | CC(=O)OCC1=C(C(=O)O)N2C(=O)[C@@H](NC(=O)Cc3cccs3)[C@H]2SC1 [CEPHALOTHIN] | – |
